From US20260000658A1, “METHODS FOR THE TREATMENT OF PROLIFERATIVE GLOMERULONEPHRITIS” (INSTITUT NATIONAL DE LA SANTÉ ET DE LA RECHERCHE MÉDICALE, priority 2022, published 2026)

How the values were obtained:
Assay type in all cases: in vivo, mouse
Tg26^HE mice = Tg26^HE mice (collapsing glomerulopathy model), vehicle or alpelisib for 8 weeks; settings: 8 weeks treatment
Procedure: (§1) For the uninephrectomy experiments, the right kidneys were removed under anesthesia. For the medical treatment of mice, 50 mg kg −1 alpelisib (MedChem Tronica) in 1% carboxymethylcellulose (Sigma Aldrich)+0.5% Tween (Sigma Aldrich) or vehicle (1% carboxymethylcellulose+0.5% Tween) was administered by oral gavage daily for the indicated periods of time. Blood and urines were obtained at the indicated times. At euthanasia, blood, urines, kidneys were harvested. In some experiments, spleens, hearts, and bone marrow (BM) in femurs and tibias were harvested as well. Tissues were fixed in 4% paraformaldehyde and paraffin embedded for immunohistochemical analysis, snap-frozen in Optimal Cutting Temperature (OCT), or stored at −80° C. for mRNA or protein analysis.
(§2) Mouse blood counts were analyzed using a hematology analyzer (ProCyte Dx; IDEXX Laboratories). Mouse serum creatinine, blood urea nitrogen, urinary albumin, and urinary creatinine were evaluated using an AU5800 (Beckman Coulter) autoanalyzer. Serum anti-dsDNA measurement was performed according to the manufacturer's instruction using mouse anti-dsDNA ELISA kit (LBIS). The absorbance was measured using Ininite M Nano (TECAN).
4-μm kidney sections were stained with periodic acid-Schiff (PAS), Masson's Trichrome (MT), Periodic acid metenamine silver (PAM) or Hematoxylin and Eosin (HE) staining for histological analysis. The degree of glomerular lesions was evaluated using the following scoring system: 0=no lesion, 1=affecting up to 25% of the glomerulus, 2=affecting 25-50% of the glomerulus, 3=affecting 50-75% of the glomerulus, and 4=affecting 75-100%. At least 50 glomeruli per sample were measured for each analysis. An indirect immunoperoxidase method was used for immunohistochemistry. Briefly, after deparaffinization, antigen retrieval was performed with citrate buffer (pH6) or Tris-EDTA buffer (pH9 or pH6) using microwave or high temperature (95° C.). Endogenous peroxidase activity was quenched using 3% hydrogen peroxide; nonspecific protein binding was blocked using 2.5% normal horse serum (Vector Laboratories), and endogenous biotin activity was quenched using the Avidin/Biotin Blocking Kit (Vector Laboratories). When using mouse primary antibodies on mouse tissue, Klear mouse blocking reagent (Diagomics) was used to block endogenous mouse immunoglobulins. After blocking, the tissue sections were incubated with the primary antibodies overnight at 4° C. The following primary antibodies were used: rabbit anti-Ki67 antibody (SP6; Thermo Fisher Scientific), rabbit anti-P-S6RP antibody (D68F8; Cell Signaling Technology), mouse anti-P-AKT (Ser473) antibody (587F11; Cell Signaling Technology), rabbit anti-P-AKT (Thr308) antibody (C31E5E; Cell Signaling Technology), mouse anti-S6RP antibody (54E2; Cell Signaling Technology), chicken anti-GFP antibody (Abcam), guinea pig anti-Nephrin antibody (GP-N2; Progen), rabbit anti-Podocin antibody (P0372; Sigma Aldrich), mouse anti-WTI antibody (6F-H2; DAKO). The corresponding secondary antibodies including anti-mouse IgG, anti-rabbit IgG, anti-guinea pig IgG, biotinylated anti-rabbit IgG (Vector Laboratories), and biotinylated anti-mouse IgG (Vector Laboratories) were applied. For Avidin/Biotin detection, an R.T.U. Vectastain Kit (Vector Laboratories) or streptavidin (Thermo Fisher Scientific) was used. The immunoreactive antigens sites were detected with hydrogen peroxide and diaminobenzidine. For frozen immunofluorescent staining, frozen tissue sections (4 μm) were briefly air dried and fixed in 50% methanol/50% acetone. The sections were then blocked with 2.5% normal horse serum and incubated with primary antibodies: guinea pig anti-Nephrin antibody (GP-N2; Progen) overnight at 4° C. The sections were then incubated at room temperature for 40 min with secondary antibodies: fluorescein isothiocyanate-conjugated (FITC) anti-mouse IgG (Sigma Aldrich), FITC anti-mouse IgM (BD Biosciences), or FITC anti-mouse C3 antibody (abcam). […]

NZBWF1/J mice = assay: Uninephrectomized NZBWF1/J mice (lupus nephritis model), vehicle or alpelisib for 4 weeks
From the text: (§3) A. Urinary albumin to creatinine ratio B. Blood urea nitrogen level, C. kidney to body weight ratio of NZBWF1/J mice at the time of sacrifice (4 weeks following either sham operation or uninephrectomy followed by the treatment either with vehicle or alpelisib) (n=5-15 mice per group). D. Representative P-S6RP/Nephrin coimmunofluorescence staining of kidneys from 4 weeks following either sham operation or uninephrectomy followed by the treatment either with vehicle or alpelisib) (n=4-6 mice per group). Scale bar […]. E. P-S6RP mean intensity quantification (n=4-6 mice per group). F. Col3a, G. Col1a, and H. Tnfα quantification of qRT-PCR analysis in the kidney cortex of kidneys at the time of sacrifice (4 weeks following either sham operation or uninephrectomy followed by the treatment either with vehicle or alpelisib) (n=5-15 mice per group). I. Kaplan-Meier survival curves of MRL-lpr mice treated either with vehicle or alpelisib (n=13-14 mice per group). J. Urinary albumin to creatinine ratio of MRL-lpr mice treated either with vehicle or alpelisib from 8 weeks old till death (n=13-14 mice per group). K. Vehicle treated mice, and L. alpelisib treated mice of the trajectory of urinary albumin to creatinine ratio of MRL-lpr mice (n=13-14 mice per group).
as §1, §2
(§4) 4-μm kidney sections were stained with periodic acid-Schiff (PAS), Masson's Trichrome (MT), Periodic acid metenamine silver (PAM) or Hematoxylin and Eosin (HE) staining for histological analysis. The degree of glomerular lesions was evaluated using the following scoring system: 0=no lesion, 1=affecting up to 25% of the glomerulus, 2=affecting 25-50% of the glomerulus, 3=affecting 50-75% of the glomerulus, and 4=affecting 75-100%. At least 50 glomeruli per sample were measured for each analysis. An indirect immunoperoxidase method was used for immunohistochemistry. Briefly, after deparaffinization, antigen retrieval was performed with citrate buffer (pH6) or Tris-EDTA buffer (pH9 or pH6) using microwave or high temperature (95° C.). Endogenous peroxidase activity was quenched using 3% hydrogen peroxide; nonspecific protein binding was blocked using 2.5% normal horse serum (Vector Laboratories), and endogenous biotin activity was quenched using the Avidin/Biotin Blocking Kit (Vector Laboratories). When using mouse primary antibodies on mouse tissue, Klear mouse blocking reagent (Diagomics) was used to block endogenous mouse immunoglobulins. After blocking, the tissue sections were incubated with the primary antibodies overnight at 4° C. […]

MRL-lpr mice = MRL-lpr mice (lupus nephritis model) treated from 8 weeks old till death
From the text: as §3, §1, §2, §4

[1] = 4 weeks treatment, at sacrifice

Cc1nc(NC(=O)N2CCC[C@H]2C(N)=O)sc1-c1ccnc(C(C)(C)C(F)(F)F)c1 [alpelisib, Alpelisib]
albuminuria (Tg26^HE mice; 4 weeks old, vs vehicle): lower albuminuria | AKT/mTOR pathway (Tg26^HE mice): profound AKT/mTOR pathway inhibition | kidney function (Tg26^HE mice): not significantly improved | expression of podocyte differentiation markers (Tg26^HE mice; vs vehicle): higher expression of podocyte differentiation markers | fibrotic markers Col1a and Col3a (Tg26^HE mice; vs vehicle): reduced expression in fibrotic markers | glomerular lesions (Tg26^HE mice; vs vehicle): less severe glomerular lesions | inflammatory marker Tnfa (Tg26^HE mice; vs vehicle): lower expression | kidney volume (Tg26^HE mice; vs vehicle): reduction in kidney volume | tubular injury markers Lcn2 and KIM1 (Tg26^HE mice; vs vehicle): lower expression of tubular injury markers | anemia (NZBWF1/J mice; 4 weeks treatment): partial correction of anemia | glomerular AKT/mTOR pathway activation (P-S6RP) (NZBWF1/J mice; 4 weeks treatment): blunted | glomerular IgG, IgM and C3 deposits (NZBWF1/J mice; 4 weeks treatment): significantly reduced | level of dsDNA (NZBWF1/J mice; 4 weeks treatment): tendency to decrease | platelet count (NZBWF1/J mice; 4 weeks treatment): significant increase in platelet count | podocyte differentiation markers (NZBWF1/J mice; 4 weeks treatment): significantly improved | blood urea nitrogen levels (NZBWF1/J mice; [1]): lower blood urea nitrogen levels | kidney to body weight ratio (NZBWF1/J mice; [1]): significantly reduced | glomeruli, histological level (NZBWF1/J mice; 4 weeks treatment, vs vehicle): preserved glomeruli | kidney lesions (title of FIG. 4) (NZBWF1/J mice; Lupus Nephritis models (NZBWF1/J and MRL-lpr)): improves kidney lesions | spleen size (NZBWF1/J mice; both sham and uninephrectomized mice): significantly reduced | albuminuria (urinary albumin to creatinine ratio) (NZBWF1/J mice; females, uninephrectomy at 24 weeks, 4 weeks treatment, at sacrifice): significantly less albuminuria | Col1a and Col3a mRNA expression (NZBWF1/J mice; kidney cortex, qRT-PCR): reduced | TNFa mRNA expression (NZBWF1/J mice; kidney cortex, qRT-PCR): reduced | progression of glomerular lesions (NZBWF1/J mice; sacrifice vs kidney removed at uninephrectomy): remained stable | kidney to body weight ratio (MRL-lpr mice; at sacrifice, vs vehicle): tendency to have a lower kidney to body weight ratio | survival / life expectancy (Kaplan-Meier) (MRL-lpr mice; females, from 8 weeks old till death): significant extension of life expectancy | trajectory of albuminuria before and after treatment introduction (MRL-lpr mice; from 8 weeks old): proteinuria improvement | glomerular lesions, kidney examination (MRL-lpr mice; vs vehicle): no glomerular lesions | kidney function (MRL-lpr mice; vs vehicle): improved kidney function | proteinuria (urinary albumin to creatinine ratio) (MRL-lpr mice; vs vehicle): less proteinuria
